{"source": "ChEMBL document CHEMBL1148674", "about": "“Morpholin-2-one derivatives as novel selective T-type Ca2+ channel blockers” (Bioorg Med Chem Lett, 2006)", "key": {"[1]": {"biological_target": "Voltage-dependent N-type calcium channel subunit alpha-1B (Homo sapiens) (UniProt Q00975)", "assay": "Ability to block calcium channel N type 2.2v expressed in HEK293 cells at 10 uM by whole cell patch clamp method", "format": "functional, cell-based"}, "[2]": {"biological_target": "T1, Voltage-dependent T-type calcium channel subunit alpha-1G (Homo sapiens, UniProt O43497)", "T1 sequence (O43497 whole entry)": "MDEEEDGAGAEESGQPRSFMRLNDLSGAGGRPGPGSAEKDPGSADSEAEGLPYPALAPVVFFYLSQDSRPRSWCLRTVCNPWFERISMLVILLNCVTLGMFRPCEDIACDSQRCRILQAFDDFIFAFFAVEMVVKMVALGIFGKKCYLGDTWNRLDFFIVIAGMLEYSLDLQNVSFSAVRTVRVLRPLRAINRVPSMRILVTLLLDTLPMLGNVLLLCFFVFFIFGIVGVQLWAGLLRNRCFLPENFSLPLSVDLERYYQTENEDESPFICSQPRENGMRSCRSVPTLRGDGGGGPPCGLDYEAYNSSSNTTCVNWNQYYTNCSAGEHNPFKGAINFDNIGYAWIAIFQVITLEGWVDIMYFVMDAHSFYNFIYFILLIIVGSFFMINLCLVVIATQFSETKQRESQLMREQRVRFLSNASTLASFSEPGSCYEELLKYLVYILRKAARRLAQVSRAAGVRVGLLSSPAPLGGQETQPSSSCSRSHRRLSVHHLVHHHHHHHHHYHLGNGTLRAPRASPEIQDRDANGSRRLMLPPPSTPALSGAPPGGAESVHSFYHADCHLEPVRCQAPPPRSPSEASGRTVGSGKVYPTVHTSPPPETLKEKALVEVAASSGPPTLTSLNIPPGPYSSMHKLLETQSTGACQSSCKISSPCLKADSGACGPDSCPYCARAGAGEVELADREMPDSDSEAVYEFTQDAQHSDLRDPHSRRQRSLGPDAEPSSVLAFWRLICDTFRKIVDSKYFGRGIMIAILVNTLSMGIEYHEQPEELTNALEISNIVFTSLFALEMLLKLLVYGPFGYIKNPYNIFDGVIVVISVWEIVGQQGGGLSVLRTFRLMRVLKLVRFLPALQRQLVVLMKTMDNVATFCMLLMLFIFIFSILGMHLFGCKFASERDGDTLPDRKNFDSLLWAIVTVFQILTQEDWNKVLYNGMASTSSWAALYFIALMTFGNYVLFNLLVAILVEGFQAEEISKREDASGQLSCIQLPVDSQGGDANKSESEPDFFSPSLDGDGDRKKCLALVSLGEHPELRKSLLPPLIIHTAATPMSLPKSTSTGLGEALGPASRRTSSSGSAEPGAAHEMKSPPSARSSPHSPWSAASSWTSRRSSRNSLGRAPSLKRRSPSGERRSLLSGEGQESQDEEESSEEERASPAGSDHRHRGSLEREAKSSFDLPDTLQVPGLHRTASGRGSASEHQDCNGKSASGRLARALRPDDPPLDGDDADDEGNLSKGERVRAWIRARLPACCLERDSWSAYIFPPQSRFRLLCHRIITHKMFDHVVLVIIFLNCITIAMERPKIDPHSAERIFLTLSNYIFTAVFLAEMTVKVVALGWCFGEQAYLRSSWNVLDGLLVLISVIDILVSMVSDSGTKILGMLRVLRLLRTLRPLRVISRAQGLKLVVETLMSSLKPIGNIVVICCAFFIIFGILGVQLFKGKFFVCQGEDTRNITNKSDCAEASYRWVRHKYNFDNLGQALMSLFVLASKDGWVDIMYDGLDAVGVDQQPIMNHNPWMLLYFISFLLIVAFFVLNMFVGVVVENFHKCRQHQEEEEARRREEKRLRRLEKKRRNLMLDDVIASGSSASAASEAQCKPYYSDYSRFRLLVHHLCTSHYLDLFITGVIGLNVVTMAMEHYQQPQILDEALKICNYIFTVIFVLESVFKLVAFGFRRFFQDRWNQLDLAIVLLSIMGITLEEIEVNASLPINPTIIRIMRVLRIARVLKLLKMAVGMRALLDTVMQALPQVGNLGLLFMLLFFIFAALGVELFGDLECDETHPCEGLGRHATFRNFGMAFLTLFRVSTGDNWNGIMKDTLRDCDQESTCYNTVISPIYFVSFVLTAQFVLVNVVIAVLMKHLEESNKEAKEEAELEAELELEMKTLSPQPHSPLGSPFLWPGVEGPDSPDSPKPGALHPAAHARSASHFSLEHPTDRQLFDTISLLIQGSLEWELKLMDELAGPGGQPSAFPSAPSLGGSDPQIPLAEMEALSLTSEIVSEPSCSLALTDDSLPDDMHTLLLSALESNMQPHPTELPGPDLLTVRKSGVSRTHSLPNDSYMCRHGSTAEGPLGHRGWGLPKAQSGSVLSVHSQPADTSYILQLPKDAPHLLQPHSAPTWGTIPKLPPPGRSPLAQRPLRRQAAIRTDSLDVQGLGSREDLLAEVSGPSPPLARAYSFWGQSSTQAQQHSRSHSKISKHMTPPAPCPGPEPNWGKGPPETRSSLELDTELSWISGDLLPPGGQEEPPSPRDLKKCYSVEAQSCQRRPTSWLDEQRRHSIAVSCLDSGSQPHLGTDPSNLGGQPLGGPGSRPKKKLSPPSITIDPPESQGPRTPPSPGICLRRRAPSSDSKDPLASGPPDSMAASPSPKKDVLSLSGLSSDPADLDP", "assay": "Ability to block calcium channel T type 3.1v expressed in HEK293 cells by whole cell patch clamp method", "format": "functional, cell-based"}, "[3]": {"species": "Homo sapiens", "assay": "Selectivity for calcium channel N type 2.2v over calcium channel T type 3.1v", "format": "functional"}, "[4]": {"biological_target": "Voltage-dependent T-type calcium channel subunit alpha-1H (Homo sapiens) (UniProt O95180)", "sequence (O95180 whole entry)": "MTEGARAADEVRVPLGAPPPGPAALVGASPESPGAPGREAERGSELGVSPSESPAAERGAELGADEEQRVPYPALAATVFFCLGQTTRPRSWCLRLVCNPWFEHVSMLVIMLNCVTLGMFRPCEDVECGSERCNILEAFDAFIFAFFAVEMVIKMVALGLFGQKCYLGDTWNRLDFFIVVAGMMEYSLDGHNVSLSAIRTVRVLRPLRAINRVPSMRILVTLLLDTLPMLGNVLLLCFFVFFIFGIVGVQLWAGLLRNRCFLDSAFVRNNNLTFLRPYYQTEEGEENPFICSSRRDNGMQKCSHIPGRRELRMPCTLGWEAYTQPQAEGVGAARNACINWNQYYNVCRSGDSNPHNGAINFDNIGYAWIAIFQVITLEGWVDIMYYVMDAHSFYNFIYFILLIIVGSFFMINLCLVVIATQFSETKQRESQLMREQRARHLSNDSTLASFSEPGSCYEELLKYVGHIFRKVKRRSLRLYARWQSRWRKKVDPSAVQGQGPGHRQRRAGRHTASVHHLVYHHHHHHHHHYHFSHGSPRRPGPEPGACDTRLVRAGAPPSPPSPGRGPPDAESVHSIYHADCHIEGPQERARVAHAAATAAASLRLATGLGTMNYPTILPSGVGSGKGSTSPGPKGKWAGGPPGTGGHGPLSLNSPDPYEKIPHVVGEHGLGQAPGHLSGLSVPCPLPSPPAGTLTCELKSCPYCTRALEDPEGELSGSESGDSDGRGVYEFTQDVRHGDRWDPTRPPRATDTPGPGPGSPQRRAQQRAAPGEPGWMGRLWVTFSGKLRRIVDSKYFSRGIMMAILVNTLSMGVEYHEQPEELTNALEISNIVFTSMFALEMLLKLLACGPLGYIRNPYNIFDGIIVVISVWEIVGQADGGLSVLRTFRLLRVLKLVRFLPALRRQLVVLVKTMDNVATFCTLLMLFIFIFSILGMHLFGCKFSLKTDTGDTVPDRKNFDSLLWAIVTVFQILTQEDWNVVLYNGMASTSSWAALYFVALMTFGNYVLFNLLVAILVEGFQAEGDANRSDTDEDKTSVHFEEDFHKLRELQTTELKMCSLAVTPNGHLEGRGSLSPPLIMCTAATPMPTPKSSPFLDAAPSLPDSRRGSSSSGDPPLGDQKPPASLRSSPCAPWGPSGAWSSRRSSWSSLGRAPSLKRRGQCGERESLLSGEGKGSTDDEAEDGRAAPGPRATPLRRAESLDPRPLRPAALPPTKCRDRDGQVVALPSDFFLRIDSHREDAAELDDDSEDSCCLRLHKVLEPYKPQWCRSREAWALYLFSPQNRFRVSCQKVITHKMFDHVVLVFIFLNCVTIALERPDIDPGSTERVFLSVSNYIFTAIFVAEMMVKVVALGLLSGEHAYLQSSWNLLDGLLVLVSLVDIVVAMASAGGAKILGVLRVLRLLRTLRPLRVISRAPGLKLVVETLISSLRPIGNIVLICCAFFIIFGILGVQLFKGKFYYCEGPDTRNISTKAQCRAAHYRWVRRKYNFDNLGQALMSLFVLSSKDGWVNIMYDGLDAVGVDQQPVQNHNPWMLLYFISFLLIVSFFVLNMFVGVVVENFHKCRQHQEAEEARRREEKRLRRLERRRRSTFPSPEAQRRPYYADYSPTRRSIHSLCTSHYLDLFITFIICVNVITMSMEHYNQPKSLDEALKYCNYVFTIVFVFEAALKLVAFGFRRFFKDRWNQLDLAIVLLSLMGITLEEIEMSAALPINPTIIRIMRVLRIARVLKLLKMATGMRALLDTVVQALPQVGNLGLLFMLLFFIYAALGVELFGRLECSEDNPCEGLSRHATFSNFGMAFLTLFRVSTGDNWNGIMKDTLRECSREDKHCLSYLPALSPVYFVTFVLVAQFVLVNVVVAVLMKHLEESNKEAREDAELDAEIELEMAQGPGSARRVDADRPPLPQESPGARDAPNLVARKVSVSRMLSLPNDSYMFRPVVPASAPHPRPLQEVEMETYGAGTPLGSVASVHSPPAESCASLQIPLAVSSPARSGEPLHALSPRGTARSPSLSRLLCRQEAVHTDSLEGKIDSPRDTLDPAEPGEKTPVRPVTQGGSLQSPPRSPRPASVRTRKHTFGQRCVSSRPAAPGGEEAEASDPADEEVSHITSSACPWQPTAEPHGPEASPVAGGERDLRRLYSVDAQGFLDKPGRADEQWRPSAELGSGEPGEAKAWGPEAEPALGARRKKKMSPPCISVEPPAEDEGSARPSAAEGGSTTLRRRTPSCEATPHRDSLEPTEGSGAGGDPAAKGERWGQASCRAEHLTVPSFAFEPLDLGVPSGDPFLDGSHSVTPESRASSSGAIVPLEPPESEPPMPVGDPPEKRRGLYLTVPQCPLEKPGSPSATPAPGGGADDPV", "assay": "Ability to block calcium channel T type 3.2v expressed in Xenopus oocytes at 100 uM by two-microelectrode voltage-clamp method", "format": "functional, cell-based", "conditions": "Oocyte"}, "[5]": {"biological_target": "T1, Voltage-dependent T-type calcium channel subunit alpha-1G", "assay": "Ability to block calcium channel T type 3.1v expressed in HEK293 cells at 10 uM by whole cell patch clamp method", "format": "functional, cell-based"}}}
{"smiles": "O=C(NCc1ccccc1)[C@@H]1COC(=O)[C@H](Cc2ccccc2)N1", "note": "(relative stereo)", "values": [{"measurement": "inhibition", "setting": "[1]", "value": 4.8, "unit": "%"}, {"measurement": "IC50", "setting": "[2]", "value": 1010, "unit": "nM"}, {"measurement": "Ratio", "setting": "[3]", "value": 16.4}, {"measurement": "inhibition", "setting": "[4]", "value": 87, "unit": "%"}, {"measurement": "inhibition", "setting": "[5]", "value": 78.9, "unit": "%"}]}
{"smiles": "O=C1OC[C@H](C(=O)NC2CCCCC2)N[C@H]1Cc1ccccc1", "note": "(relative stereo)", "values": [{"measurement": "inhibition", "setting": "[4]", "value": 30.3, "unit": "%"}]}
{"smiles": "CSCC[C@@H]1N[C@H](C(=O)NCc2ccccc2)COC1=O", "note": "(relative stereo)", "values": [{"measurement": "inhibition", "setting": "[1]", "value": 15.4, "unit": "%"}, {"measurement": "IC50", "setting": "[2]", "value": 1860, "unit": "nM"}, {"measurement": "Ratio", "setting": "[3]", "value": 4.9}, {"measurement": "inhibition", "setting": "[4]", "value": 74, "unit": "%"}, {"measurement": "inhibition", "setting": "[5]", "value": 75.1, "unit": "%"}]}
{"smiles": "C[C@H](NC(=O)[C@@H]1COC(=O)[C@H](Cc2ccc(F)cc2)N1)c1ccccc1", "values": [{"measurement": "inhibition", "setting": "[4]", "value": 35.6, "unit": "%"}]}
{"smiles": "O=C1OC[C@H](C(=O)NCc2ccccc2)N[C@H]1Cc1ccc(F)cc1", "note": "(relative stereo)", "values": [{"measurement": "inhibition", "setting": "[4]", "value": 12.3, "unit": "%"}]}
{"smiles": "CC(C)(C)NC(=O)[C@H]1COC(=O)[C@H](Cc2ccccc2)N1", "note": "(relative stereo)", "values": [{"measurement": "inhibition", "setting": "[4]", "value": 42, "unit": "%"}]}
{"smiles": "COCC(=O)O[C@]1(CCN(C)CCCc2nc3ccccc3[nH]2)CCc2cc(F)ccc2[C@@H]1C(C)C", "values": [{"measurement": "inhibition", "setting": "[1]", "value": 57.4, "unit": "%"}, {"measurement": "inhibition", "setting": "[5]", "value": 89.8, "unit": "%"}]}
{"smiles": "O=C(NCc1ccccc1)[C@@H]1COC(=O)[C@H](Cc2ccc(F)cc2)N1", "note": "(relative stereo)", "values": [{"measurement": "inhibition", "setting": "[1]", "value": 7.1, "unit": "%"}, {"measurement": "IC50", "setting": "[2]", "value": 2750, "unit": "nM"}, {"measurement": "Ratio", "setting": "[3]", "value": 10.9}, {"measurement": "inhibition", "setting": "[4]", "value": 70.9, "unit": "%"}, {"measurement": "inhibition", "setting": "[5]", "value": 77.6, "unit": "%"}]}
{"smiles": "C[C@H](NC(=O)[C@H]1COC(=O)[C@H](Cc2ccc(O)cc2)N1)c1ccccc1", "values": [{"measurement": "inhibition", "setting": "[4]", "value": 27.6, "unit": "%"}]}
{"smiles": "O=C(NCc1ccccc1)[C@@H]1COC(=O)[C@H](Cc2ccc(Cl)cc2)N1", "note": "(relative stereo)", "values": [{"measurement": "inhibition", "setting": "[1]", "value": 33.7, "unit": "%"}, {"measurement": "IC50", "setting": "[2]", "value": 450, "unit": "nM"}, {"measurement": "Ratio", "setting": "[3]", "value": 2.5}, {"measurement": "inhibition", "setting": "[4]", "value": 73.5, "unit": "%"}, {"measurement": "inhibition", "setting": "[5]", "value": 83.6, "unit": "%"}]}
{"smiles": "C[C@H](NC(=O)[C@@H]1COC(=O)[C@H](Cc2ccc(O)cc2)N1)c1ccccc1", "values": [{"measurement": "inhibition", "setting": "[1]", "value": 4.7, "unit": "%"}, {"measurement": "IC50", "setting": "[2]", "value": 1390, "unit": "nM"}, {"measurement": "Ratio", "setting": "[3]", "value": 16.4}, {"measurement": "inhibition", "setting": "[4]", "value": 45.8, "unit": "%"}, {"measurement": "inhibition", "setting": "[5]", "value": 77, "unit": "%"}]}
{"smiles": "CC(C)(C)NC(=O)[C@@H]1COC(=O)[C@H](Cc2ccccc2)N1", "note": "(relative stereo)", "values": [{"measurement": "inhibition", "setting": "[4]", "value": 43, "unit": "%"}]}
{"smiles": "C[C@H](NC(=O)[C@H]1COC(=O)[C@H](Cc2ccc([N+](=O)[O-])cc2)N1)c1ccccc1", "values": [{"measurement": "inhibition", "setting": "[4]", "value": 25.2, "unit": "%"}]}
{"smiles": "O=C1OC[C@H](C(=O)NCc2ccccc2)N[C@H]1Cc1ccc(Cl)cc1", "note": "(relative stereo)", "values": [{"measurement": "inhibition", "setting": "[4]", "value": 19.1, "unit": "%"}]}
{"smiles": "O=C(NCc1ccccc1)[C@@H]1COC(=O)[C@H](Cc2ccc([N+](=O)[O-])cc2)N1", "note": "(relative stereo)", "values": [{"measurement": "inhibition", "setting": "[1]", "value": 7.6, "unit": "%"}, {"measurement": "IC50", "setting": "[2]", "value": 1130, "unit": "nM"}, {"measurement": "Ratio", "setting": "[3]", "value": 11.3}, {"measurement": "inhibition", "setting": "[4]", "value": 74.8, "unit": "%"}, {"measurement": "inhibition", "setting": "[5]", "value": 86.2, "unit": "%"}]}
{"smiles": "Cc1ccc(S(=O)(=O)CNC(=O)[C@@H]2COC(=O)[C@H](Cc3ccccc3)N2)cc1", "note": "(relative stereo)", "values": [{"measurement": "inhibition", "setting": "[4]", "value": 13, "unit": "%"}]}
{"smiles": "O=C1OC[C@H](C(=O)NCc2ccccc2)N[C@H]1Cc1ccccc1", "note": "(relative stereo)", "values": [{"measurement": "inhibition", "setting": "[4]", "value": 5, "unit": "%"}]}
{"smiles": "COc1ccc(C[C@@H]2N[C@@H](C(=O)NCc3ccccc3)COC2=O)cc1", "note": "(relative stereo)", "values": [{"measurement": "inhibition", "setting": "[4]", "value": 16.2, "unit": "%"}]}
{"smiles": "Cc1ccc(S(=O)(=O)CNC(=O)[C@H]2COC(=O)[C@H](Cc3ccccc3)N2)cc1", "note": "(relative stereo)", "values": [{"measurement": "inhibition", "setting": "[4]", "value": 25, "unit": "%"}]}
{"smiles": "C[C@H](NC(=O)[C@H]1COC(=O)[C@H](Cc2ccc(F)cc2)N1)c1ccccc1", "values": [{"measurement": "inhibition", "setting": "[1]", "value": 11.3, "unit": "%"}, {"measurement": "IC50", "setting": "[2]", "value": 1480, "unit": "nM"}, {"measurement": "Ratio", "setting": "[3]", "value": 7.2}, {"measurement": "inhibition", "setting": "[4]", "value": 83.6, "unit": "%"}, {"measurement": "inhibition", "setting": "[5]", "value": 80.8, "unit": "%"}]}
{"smiles": "O=C(NC1CCCCC1)[C@@H]1COC(=O)[C@H](Cc2ccccc2)N1", "note": "(relative stereo)", "values": [{"measurement": "inhibition", "setting": "[1]", "value": 9.4, "unit": "%"}, {"measurement": "IC50", "setting": "[2]", "value": 2180, "unit": "nM"}, {"measurement": "Ratio", "setting": "[3]", "value": 7.8}, {"measurement": "inhibition", "setting": "[4]", "value": 76, "unit": "%"}, {"measurement": "inhibition", "setting": "[5]", "value": 73.6, "unit": "%"}]}
{"smiles": "CCC(C)[C@@H]1N[C@H](C(=O)NCc2ccccc2)COC1=O", "note": "(stereo not given in full)", "values": [{"measurement": "inhibition", "setting": "[1]", "value": 1.7, "unit": "%"}, {"measurement": "IC50", "setting": "[2]", "value": 1220, "unit": "nM"}, {"measurement": "Ratio", "setting": "[3]", "value": 37.3}, {"measurement": "inhibition", "setting": "[4]", "value": 70, "unit": "%"}, {"measurement": "inhibition", "setting": "[5]", "value": 63.4, "unit": "%"}]}
{"smiles": "C[C@H](NC(=O)[C@@H]1COC(=O)[C@H](Cc2ccc(Cl)cc2)N1)c1ccccc1", "values": [{"measurement": "inhibition", "setting": "[1]", "value": 10.9, "unit": "%"}, {"measurement": "IC50", "setting": "[2]", "value": 1610, "unit": "nM"}, {"measurement": "Ratio", "setting": "[3]", "value": 5.9}, {"measurement": "inhibition", "setting": "[4]", "value": 48.4, "unit": "%"}, {"measurement": "inhibition", "setting": "[5]", "value": 64, "unit": "%"}]}
{"smiles": "C[C@H](NC(=O)[C@H]1COC(=O)[C@H](Cc2ccc(Cl)cc2)N1)c1ccccc1", "values": [{"measurement": "inhibition", "setting": "[1]", "value": 4, "unit": "%"}, {"measurement": "IC50", "setting": "[2]", "value": 1330, "unit": "nM"}, {"measurement": "Ratio", "setting": "[3]", "value": 19.8}, {"measurement": "inhibition", "setting": "[4]", "value": 73.3, "unit": "%"}, {"measurement": "inhibition", "setting": "[5]", "value": 79, "unit": "%"}]}
{"smiles": "C[C@H](NC(=O)[C@@H]1COC(=O)[C@H](Cc2ccc([N+](=O)[O-])cc2)N1)c1ccccc1", "values": [{"measurement": "inhibition", "setting": "[1]", "value": 4, "unit": "%"}, {"measurement": "IC50", "setting": "[2]", "value": 2130, "unit": "nM"}, {"measurement": "Ratio", "setting": "[3]", "value": 20.1}, {"measurement": "inhibition", "setting": "[4]", "value": 60.8, "unit": "%"}, {"measurement": "inhibition", "setting": "[5]", "value": 80.2, "unit": "%"}]}
{"smiles": "CC(C)[C@@H]1N[C@H](C(=O)NCc2ccccc2)COC1=O", "note": "(relative stereo)", "values": [{"measurement": "inhibition", "setting": "[1]", "value": 25.3, "unit": "%"}, {"measurement": "IC50", "setting": "[2]", "value": 990, "unit": "nM"}, {"measurement": "Ratio", "setting": "[3]", "value": 3.1}, {"measurement": "inhibition", "setting": "[4]", "value": 82, "unit": "%"}, {"measurement": "inhibition", "setting": "[5]", "value": 78.8, "unit": "%"}]}
{"smiles": "COc1ccc(C[C@@H]2N[C@H](C(=O)NCc3ccccc3)COC2=O)cc1", "note": "(relative stereo)", "values": [{"measurement": "inhibition", "setting": "[1]", "value": 2.5, "unit": "%"}, {"measurement": "IC50", "setting": "[2]", "value": 2040, "unit": "nM"}, {"measurement": "Ratio", "setting": "[3]", "value": 29.6}, {"measurement": "inhibition", "setting": "[4]", "value": 54.6, "unit": "%"}, {"measurement": "inhibition", "setting": "[5]", "value": 74, "unit": "%"}]}
{"smiles": "O=C1OC[C@H](C(=O)NCc2ccccc2)N[C@H]1Cc1ccc([N+](=O)[O-])cc1", "note": "(relative stereo)", "values": [{"measurement": "inhibition", "setting": "[4]", "value": 6.5, "unit": "%"}]}
